# No end group written: not given here. *: point of attachment. 5FAM = O=C1OC2(c3ccc(O)cc3Oc3cc(O)ccc32)c2ccc(C(=O)*)cc21
# Tests used:
# anti-EIAV IgG = assay: Fluorescence polarization of probe peptides with purified IgG from field-infected horse (Lady); assay type: binding; details: for change in FP with purified antibodies from field-infected animal: Lady IgG
# Protocol: Due to problems encountered with testing horse serum, the initial evaluation made use of purified IgG from a reference long-term, field-infected horse (Lady). Purified IgG from field infected horse serum (100 μg/ml) was incubated with the candidate probe peptides (2 nM) in PBS for 20 min. The results are shown in FIG. 1, wherein black bars indicate probe added to IgG and gray bars indicate probe in buffer alone. All peptides were the 5-carboxyfluorescein derivatives. […] The other peptides in the panel had only slight changes in polarization in the presence of Lady IgG.
# (§1) Fluorescence Polarization (FP) Measurements. The fluorescein-labeled peptides were evaluated for their suitability as probes for FP using an FPM-1 Fluorescence Polarization Analyzer (Jolley Consulting and Research, Grayslake, Ill.) batch mode with the following settings: PMT gain 80, heater off, single read. Serum was diluted 1:100 or 1:50 into 2 mL of buffer in 12×75 mm borosilicate glass tubes (VWR). After reading the blank, fluorescently labeled peptide was added to a final concentration of 1-2 nM (100K-200K total intensity) and incubated for at least 15 minutes. The FP of the sample was measured and expressed as millipolarization units (mP). Some of the sera were very dark, presumably due to hemolysis. If such a serum sample had low lamp feedback (<0.63), a two-fold further dilution was tested. Polarization data was output to a computer running the FPM-1 data collection software, then converted to an ASCII text file and imported into the Quattro Pro spreadsheet program (Corel, Ottawa, Ontario) for data analysis and graphing.
# [1] = tested on: serum antibodies to equine infectious anemia virus; assay: Fluorescence polarization (FP) assay of fluorescein-labeled peptides with diluted horse serum; assay type: binding; details: for FP reactivity with experimentally infected serum: Pony 95 serum; for FP interaction with EIAV-positive sera: EIAV-positive sera incl. R51 FP-nonreactive samples; for FP signal of R51 with positive sera: approx. 2 nM peptide, 1:100 serum, 50 mM sodium phosphate pH 6.8, 20 min, 5CF vs 6CF label
# Protocol: Several different buffer compositions and detergents were therefore tested for compatibility with horse serum. When horse serum was diluted 1:50 or 1:100 into 20-50 mM sodium phosphate without NaCl, this problem was virtually eliminated. […] Under the low-salt conditions, the polarization of peptide R51-5CF increased from 50 mP to over 200 mP with a 1:100 dilution of a strong positive EIAV antiserum from an experimental infection (Pony 95). Thus it was determined that the optimal buffer composition for the FP assay was 50 mM sodium phosphate, pH 6.8-7.0.
# as §1
# Because different fluorescein linkages can result in differences in sensitivity in the FP assay, R51 peptide was labeled with 6-carboxyfluorescein so the difference between the two labels could be ascertained. […] Peptides (approx. 2 nM) were incubated with a 1:100 dilution of serum in 50 mM sodium phosphate, pH 6.8, for 20 minutes. The results are shown in FIG. 2, in order of decreasing peptide length. In FIG. 2, black bars show the results for experimentally-infected (pony 95), hatched bars for field infected ([…]), gray bars for uninfected (Petite), and white bars for no serum added. […] As the R51-6CF probe was the most sensitive to the positive sera tested, 6-carboxyfluorescein is the preferred fluorophore. However, other fluorophores, such as rhodamine, BODIPY™ M, Texas Red™ and Lucifer yellow, could also be used. For a detailed listing of a variety of commercially available fluorophores, see Handbook of Fluorescent Probes and Research Chemicals, ed. Karen Larison, by Richard P. Haughland, Ph.D., 5th ed., 1992, published by Molecular Probes, Inc.
# [2] = tested on: anti-EIAV antibodies in horse sera; assay: Anti-fluorescein capture ELISA; assay type: binding; details: for ELISA reactivity: Pony 95 and Lady sera; for reactivity in the anti-fluorescein ELISA: general statement of Example 3; for ELISA reactivity with FP-nonreactive sera: sera 1:50, FP-nonreactors from Texas
# Protocol: Anti-Fluorescein Capture ELISA. In order to measure antibody binding to test peptides without regard to their suitability for FP, an anti-fluorescein capture ELISA was used. To each well of an Immulon 2 HB 96-well plate (Dynex, Chantilly, Va.) was added 50 μL rabbit anti-fluorescein antibody (Molecular Probes), 3.5 μg/ml in 50 mM sodium bicarbonate, pH 9.6; the plates were sealed and incubated overnight. The wells were blocked with Blotto (5% nonfat dry milk, 5% normal bovine serum, 0.025% Tween 20 in PBS (PBST). The plates were then incubated with test horse sera, diluted 1:100 in Blotto, for 1 h at RT, washed as above, then incubated with anti-horse IgG(Fc)-HRP (United States Biochemical), diluted 1:10^5 in Blotto, for 1 h at RT and washed. The substrate, TM Blue Soluble reagent (200 μL/well; Intergen, Milford, Mass.) was added and incubated for 20 minutes with shaking, and the reaction stopped with the addition of 50 μL/well 1.0 N H2SO4 for 5 minutes with shaking. Absorbance at 450 nm was measured on a Dynex MR5000 microplate reader. Because each peptide caused a slightly different background absorbance, control wells containing no horse serum were included for each peptide tested.
# Some of the sera from Missouri (4/10) could not be tested due to interference from a high level of hemolysis, resulting in low lamp feedback values. […] In order to confirm the serological status of FP-unreactive sera, they were tested in a western blot (data not shown) as well as in the antifluorescein-capture ELISA using the seven original peptides derived from the three major antigens mentioned above (FIG. 5). Sera (1:50 dilution) were tested for reactivity to four EIAV-derived, fluorescein-labeled peptides in an ELISA format as described in the methods. NHS, normal (uninfected) horse serum; Tx43 through Txll7, FP-nonreactive, Tx47 through pony 95, FP-reactive sera. Black bars, peptide R51F; hatched bars, R32; gray bars, pepl2; white bars, Sam50.
# [3] = Behaviour of the R51 probe in solution (cyclization, dilution); assay type: physicochemical
# Protocol: Because R51 contains two Cys residues that may form a loop in the native protein, the differences in reactivity were assessed between linear or cyclized peptide (cyclic by virtue of an intramolecular disulfide bond).
substance,measurement,setting,value
KERQQVEETFNLI (Equine infectious anemia virus) [R32],change in FP with purified antibodies from field-infected animal,anti-EIAV IgG,did not exhibit an increase in FP
same,FP reactivity with experimentally infected serum,[1],some reactivity
same,ELISA reactivity,[2],reacted very strongly
same,reactivity in the anti-fluorescein ELISA,[2],strong and broad reactivity
same,ELISA reactivity with FP-nonreactive sera,[2],no measurable antibody
ADDWDNRHPLPNAPLVAPPQGPIPMT (Equine infectious anemia virus) [Sam50],FP interaction with EIAV-positive sera,[1],insensitive to EIAV-positive sera
R51-5CF: R51 peptide labeled at the N-terminus with 5-carboxyfluorescein (5FAM-IGCIERTHVFCHTG; cysteine pairing not given here),free-peptide polarization level,"anti-EIAV IgG; probe 2 nM in PBS buffer alone, 5-carboxyfluorescein derivative",about 60 mP
same,FP in the presence of Lady IgG,"anti-EIAV IgG; probe 2 nM, 60-100 μg/ml Lady IgG in PBS, 20 min",around 140 MP
same,FP signal of R51 with positive sera,[1],220 mP
same,FP reactivity with field-infected horse serum,[1]; field infected horses (Lady),sensitive to serum from field infected horses
same,polarization with strong positive EIAV antiserum,"[1]; low-salt conditions, 1:100 dilution, experimental infection (Pony 95)",over 200 mP
same,polarization of peptide before serum,"[1]; low-salt conditions, starting value",50 mP
IGCIERTHVFCHTG (Equine infectious anemia virus) [R51],sensitivity of cyclized vs linear peptide,"[1]; cyclic by intramolecular disulfide bond, field isolates",more sensitive to field isolates than the linear form
same,ELISA reactivity with FP-nonreactive sera,[2],no measurable antibody
same,precipitation of probe,[3]; conditions that allow cyclization,prone to precipitation
same,stability of peptide,[3]; upon dilution,stable upon dilution
"R51-6CF: R51 peptide (SEQ ID NO 1) labeled with 6-carboxyfluorescein (IGCIERTHVFCHTG; cysteine pairing not given here; also: 6-carboxyfluorescein label, position not given here)",polarization values of negative serum samples,"[1]; 110 AGID-negative sera, 1:100 dilution",73.6±3.0 mP
same,FP signal of R51 with positive sera,[1],> 300 mP
same,average mP value with field-infected sera,"[1]; measurable sera of 153 field-infected animals, 1:100 dilution, ~2 nM peptide",150±55 mP
QQVEETFNLI (Equine infectious anemia virus) [R32QQ],maximum FP,"[1]; 1:100 dilution of pony 95, R32 length series, fluorescein-6-isothiocyanate label",> 200 mP
same,FP reactivity with experimentally infected serum,[1],most sensitive peptide
HPLPNAPLVAPPQGPIPMT (Equine infectious anemia virus) [Sam50H],FP interaction with EIAV-positive sera,[1],none of these analogs displayed a measurable interaction
APLVAPPQGPIPMT (Equine infectious anemia virus) [Sam50A],FP interaction with EIAV-positive sera,[1],none of these analogs displayed a measurable interaction
LETWKLVKTSGVTPLPISSEANTGL (Equine infectious anemia virus) [Peptide 12],change in FP with purified antibodies from field-infected animal,anti-EIAV IgG,did not exhibit an increase in FP
same,FP reactivity with experimentally infected serum,[1],some reactivity
same,ELISA reactivity,[2],reacted very strongly
same,reactivity in the anti-fluorescein ELISA,[2],strong and broad reactivity
same,ELISA reactivity with FP-nonreactive sera,[2],bind only weakly

# — patent US20020025512A1, “FLUORESCENCE POLARIZATION- BASED DIAGNOSTIC ASSAY FOR EQUINE INFECTIOUS ANEMIA VIRUS” (priority 1998, published 2002)
